The text below walks through data of patent US8993752B2, “Neprilysin inhibitors” (Theravance Biopharma R&D IP, LLC, priority 2011, dated 2015).

The test deals with T1, human NEP (Homo sapiens, UniProt P08473).
T1 construct: purchased R&D Systems, Minneapolis, Minn; 1182-ZN
T1 sequence (P08473 whole entry): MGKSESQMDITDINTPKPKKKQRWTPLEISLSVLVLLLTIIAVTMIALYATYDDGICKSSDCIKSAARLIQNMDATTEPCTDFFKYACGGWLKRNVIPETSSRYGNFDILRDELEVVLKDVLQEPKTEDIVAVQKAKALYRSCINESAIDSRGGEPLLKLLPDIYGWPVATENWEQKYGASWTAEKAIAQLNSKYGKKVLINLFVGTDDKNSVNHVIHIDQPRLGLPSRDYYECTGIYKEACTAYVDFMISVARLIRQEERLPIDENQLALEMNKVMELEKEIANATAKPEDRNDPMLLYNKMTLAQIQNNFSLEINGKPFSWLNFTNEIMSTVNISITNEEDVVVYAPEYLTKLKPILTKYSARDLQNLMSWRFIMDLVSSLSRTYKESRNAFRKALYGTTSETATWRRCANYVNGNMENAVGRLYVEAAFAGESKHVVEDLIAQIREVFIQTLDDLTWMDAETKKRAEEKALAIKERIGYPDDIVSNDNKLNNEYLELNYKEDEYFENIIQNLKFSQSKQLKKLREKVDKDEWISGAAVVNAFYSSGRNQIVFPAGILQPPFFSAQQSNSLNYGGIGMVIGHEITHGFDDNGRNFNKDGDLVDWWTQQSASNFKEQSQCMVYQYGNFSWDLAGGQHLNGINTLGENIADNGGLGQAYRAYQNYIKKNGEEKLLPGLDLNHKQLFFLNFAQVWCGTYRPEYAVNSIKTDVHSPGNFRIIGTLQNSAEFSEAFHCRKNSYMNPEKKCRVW
Briefly: In vitro enzyme inhibition assay at human NEP (fluorogenic peptide substrate). The class given is biochemical. The note with it: recombinant human NEP; substrate Mca-D-Arg-Arg-Leu-Dap-(Dnp)-OH 10 μM; 37° C.; values given as ranges; read-out: pKi values at human NEP (converted). The procedure:
The inhibitory activities of compounds at human and rat neprilysin (EC 3.4.24.11; NEP) and human angiotensin converting enzyme (ACE) were determined using in vitro assays as described below.
Recombinant human NEP and recombinant human ACE were obtained commercially (R&D Systems, Minneapolis, Minn., catalog numbers 1182-ZN and 929-ZN, respectively). The fluorogenic peptide substrate Mca-D-Arg-Arg-Leu-Dap-(Dnp)-OH (Medeiros et al. (1997) Braz. J. Med. Biol. Res. 30:1157-62; Anaspec, San Jose, Calif.) and Abz-Phe-Arg-Lys(Dnp)-Pro-OH (Araujo et al. (2000) Biochemistry 39:8519-8525; Bachem, Torrance, Calif.) were used in the NEP and ACE assays respectively.
The assays were performed in 384-well white opaque plates at 37° C. using the fluorogenic peptide substrates at a concentration of 10 μM in Assay Buffer (NEP: 50 mM HEPES, pH 7.5, 100 mM NaCl, 0.01% polyethylene glycol sorbitan monolaurate (Tween-20), 10 μM ZnSO4; ACE: 50 mM HEPES, pH 7.5, 100 mM NaCl, 0.01% Tween-20, 1 μM ZnSO4).
Test compounds were assayed over the range of concentrations from 10 μM to 20 pM. Test compounds were added to the enzymes and incubated for 30 minute at 37° C. prior to initiating the reaction by the addition of substrate. Reactions were terminated after 20 minutes of incubation at 37° C. by the addition of glacial acetic acid to a final concentration of 3.6% (v/v).
Plates were read on a fluorometer with excitation and emission wavelengths set to 320 nm and 405 nm, respectively Inhibition constants were obtained by nonlinear regression of the data using the equation (GraphPad Software, Inc., San Diego, Calif.): v=v0/[1+(I/K′)] where v is the reaction rate, v0 is the uninhibited reaction rate, I is the inhibitor concentration and K′ is the apparent inhibition constant.
Compounds of the invention were tested in this assay and found to have pKi values at human NEP as follows.
Turning to `O=C(N[C@H](Cc1ccccc1Cl)[C@@H](O)C(=O)O)c1cc(C(=O)O)n(Cc2ccc(Cl)cc2)n1` [Example 2-1, 5-[(1R,2R)-2-Carboxy-1-(2-chloro-benzyl)-2-hydroxy-ethylcarbamoyl]-2-(4-chloro-benzyl)-2H-pyrazole-3-carboxylic acid], the Ki is 1.26 to 10 nM.
`O=C(N[C@H](Cc1ccccc1Cl)[C@@H](O)C(=O)O)c1cc(C(=O)O)n(Cc2c(F)cc(Cl)cc2F)n1` [Example 2-2, 5-[(1R,2R)-2-Carboxy-1-(2-chloro-benzyl)-2-hydroxy-ethylcarbamoyl]-2-(4-chloro-2,6-difluoro-benzyl)-2H-pyrazole-3-carboxylic acid]: the Ki was 1.26 to 10 nM.
With `O=C(N[C@H](Cc1ccccc1Cl)[C@@H](O)C(=O)O)c1cc(C(=O)O)n(Cc2ccc(Cl)c(SC(F)(F)F)c2)n1` [Example 2-9, 5-[(1R,2R)-2-Carboxy-1-(2-chloro-benzyl)-2-hydroxy-ethylcarbamoyl]-2-(4-chloro-3-trifluoromethylsulfanyl-benzyl)-2H-pyrazole-3-carboxylic acid], the Ki is 12.6 to 100 nM.
`O=C(N[C@H](Cc1ccccc1Cl)[C@@H](O)C(=O)O)c1cc(C(=O)O)n(Cc2cccc(Cl)c2)n1` [Example 2-10, 5-[(1R,2R)-2-Carboxy-1-(2-chloro-benzyl)-2-hydroxy-ethylcarbamoyl]-2-(3-chloro-benzyl)-2H-pyrazole-3-carboxylic acid]: the Ki is 1.26 to 10 nM.
`COc1cccc(Cn2nc(C(=O)N[C@H](Cc3ccccc3Cl)[C@@H](O)C(=O)O)cc2C(=O)O)c1` [Example 2-11, 5-[(1R,2R)-2-Carboxy-1-(2-chloro-benzyl)-2-hydroxy-ethylcarbamoyl]-2-(3-methoxy-benzyl)-2H-pyrazole-3-carboxylic acid]: the Ki is 1.26 to 10 nM.
For `O=C(N[C@H](Cc1ccccc1Cl)[C@@H](O)C(=O)O)c1cc(C(=O)O)n(Cc2ccc(Cl)cc2C(F)(F)F)n1` [Example 2-12, 5-[(1R,2R)-2-Carboxy-1-(2-chloro-benzyl)-2-hydroxy-ethylcarbamoyl]-2-(4-chloro-2-trifluoromethyl-benzyl)-2H-pyrazole-3-carboxylic acid], the Ki is 12.6 to 100 nM.
Take `O=C(N[C@H](Cc1ccccc1Cl)[C@@H](O)C(=O)O)c1cc(C(=O)O)n(Cc2ccc(Cl)c(OC(F)(F)F)c2)n1` [Example 2-13, 5-[(1R,2R)-2-Carboxy-1-(2-chloro-benzyl)-2-hydroxy-ethylcarbamoyl]-2-(4-chloro-3-trifluoromethoxy-benzyl)-2H-pyrazole-3-carboxylic acid]: the Ki is 12.6 to 100 nM.
Take `O=C(N[C@H](Cc1ccccc1Cl)[C@@H](O)C(=O)O)c1cc(C(=O)O)n(Cc2c(F)ccc(Cl)c2F)n1` [Example 2-14, 5-[(1R,2R)-2-Carboxy-1-(2-chloro-benzyl)-2-hydroxy-ethylcarbamoyl]-2-(3-chloro-2,6-difluoro-benzyl)-2H-pyrazole-3-carboxylic acid]: the Ki was 1.26 to 10 nM.
With `O=C(N[C@H](Cc1ccccc1Cl)[C@@H](O)C(=O)O)c1cc(C(=O)O)n(Cc2cc(F)ccc2Cl)n1` [Example 2-15, 5-[(1R,2R)-2-Carboxy-1-(2-chloro-benzyl)-2-hydroxy-ethylcarbamoyl]-2-(2-chloro-5-fluoro-benzyl)-2H-pyrazole-3-carboxylic acid], the Ki was 1.26 to 10 nM.
The value for `O=C(N[C@H](Cc1ccccc1Cl)[C@@H](O)C(=O)O)c1cc(C(=O)O)n(Cc2cc(F)cc(Cl)c2)n1` [Example 2-16, 5-[(1R,2R)-2-Carboxy-1-(2-chloro-benzyl)-2-hydroxy-ethylcarbamoyl]-2-(3-chloro-5-fluoro-benzyl)-2H-pyrazole-3-carboxylic acid] was 1.26 to 10 nM; that for `COc1c(F)cc(Cn2nc(C(=O)N[C@H](Cc3ccccc3Cl)[C@@H](O)C(=O)O)cc2C(=O)O)cc1Cl` [Example 2-17, 5-[(1R,2R)-2-Carboxy-1-(2-chloro-benzyl)-2-hydroxy-ethylcarbamoyl]-2-(3-chloro-5-fluoro-4-methoxy-benzyl)-2H-pyrazole-3-carboxylic acid] was 1.26 to 10 nM.
